Assay results: patent publication US8080566B1, “Carbazole inhibitors of histamine receptors for the treatment of disease” (Kalypsys, Inc, priority 2008, dated 2011)

Tests used:
[1] = molecular target: human histamine receptor type 1 (Homo sapiens, UniProt P35367); test: In vitro histamine receptor cell-based assay, H1R antagonist (aequorin bioluminescence); details: CHO-K1 cells expressing human H1 receptor and aequorin; histamine at EC80
Description: (§1) In Vitro Histamine Receptor Cell-Based Assays
(§2) The assays are based on an aequorin dependent bioluminescence signal, generated by receptor signaling through Gq/11 or a similarly acting G protein and a resulting transient calcium flux. Doubly-transfected, stable CHO-K1 cell lines expressing human histamine receptor type 1 or type 4, mitochondrion-targeted aequorin, and (histamine type 4 receptor only) human G protein Gα16 are obtained from Perkin-Elmer (Histamine H1 cell line, catalog ES-390-A; Histamine H4 cell line, catalog ES-393-A). Cells are maintained on conventional culture plasticware in F12 (Ham's) growth medium containing 10% (vol./vol.) fetal bovine serum, penicillin (100 IU/ml), streptomycin (0.1 mg/ml), zeocin (0.25 mg/ml) and geneticin (0.40 mg/ml), as per the manufacturer's instructions (all components from Invitrogen, Inc.). One day prior to assay, the growth medium is replaced with the same, excluding zeocin and geneticin.
(§3) To prepare cells for a histamine receptor assay, growth medium is aspirated, and the cells are rinsed with calcium-free, magnesium-free phosphate-buffered saline. The rinse is aspirated and replaced with Versene (Invitrogen, Inc.) and the cells incubated for two to three minutes at 37° C., followed by tapping the plate to fully dislodge cells. Assay medium (DMEM:F12 [50:50], phenol-red free, containing 1 mg/ml protease-free bovine serum albumin) is added to collect the cells, which are then transferred to a conical tube for centrifugation. The cell pellet is re-suspended in assay medium, and the cell density is determined by counting with a hemacytometer. The cells are then centrifuged again and re-suspended in assay medium to a final density of 5×10^6 cells/ml. Coelenterazine-h dye (500 μM in ethanol) is then added to a final concentration of 5 μM, and mixed immediately. The conical tube containing the cells is then wrapped with foil to protect the light sensitive dye. The cells are incubated for four hours further at normal room temperature (approximately 21° C.) with vertical rotation to keep them in suspension.
(§4) Just before assay, the dye-loaded cells are diluted to 0.75×10^6 cells/ml (H1 receptor) or 1.5×10^6 cells/ml (H4 receptor) with additional assay medium. Cells are dispensed to 1536 well microtiter plates at 3 μl/well. To assay receptor antagonist activity, […] of 100× concentration test compounds in dimethyl sulfoxide (DMSO) are dispensed to the wells, one compound per well, by passive pin transfer, and the plates are incubated for 15 minutes at room temperature. Assay plates are then transferred to a Lumilux (Perkin-Elmer) bioluminescence plate reader equipped with an automated 1536 well disposable tip pipette. The pipette then dispenses 3 μl/well of agonist (histamine, at twice the final concentration, where final concentration is a previously determined EC80 for response), with concurrent bioluminescence detection.
(§5) CCD imaging capture on the Lumilux instrument includes a 5 second baseline read prior to agonist addition, generally with a 40 second complete read per plate. A decrease in bioluminescence signal (measured either as area-under-the-curve, or maximum signal amplitude minus minimum signal amplitude) correlates with receptor antagonism. Negative control activity is measured with DMSO lacking any test compound. For receptor antagonist assays, positive control activity is measured with diphenhydramine (2-Diphenylmethoxy-N,N-dimethylethylamine, 10 μM final concentration, H1 receptor) or JNJ7777120 (1-[(5-Chloro-1H-indol-2-yl)carbonyl]-4-methyl-piperazine, 10 μM final concentration, H4 receptor). For receptor agonist assays, positive activity is measured with histamine (10 μM final concentration). Efficacy is measured as a percentage of positive control activity.

[2] = molecular target: human histamine receptor type 4 (Homo sapiens, UniProt Q9H3N8); test: In vitro histamine receptor cell-based assay, H4R antagonist (aequorin bioluminescence); details: CHO-K1 cells expressing human H4 receptor, aequorin and Gα16; histamine at EC80
Sequence of human histamine receptor type 4 (Q9H3N8 whole entry): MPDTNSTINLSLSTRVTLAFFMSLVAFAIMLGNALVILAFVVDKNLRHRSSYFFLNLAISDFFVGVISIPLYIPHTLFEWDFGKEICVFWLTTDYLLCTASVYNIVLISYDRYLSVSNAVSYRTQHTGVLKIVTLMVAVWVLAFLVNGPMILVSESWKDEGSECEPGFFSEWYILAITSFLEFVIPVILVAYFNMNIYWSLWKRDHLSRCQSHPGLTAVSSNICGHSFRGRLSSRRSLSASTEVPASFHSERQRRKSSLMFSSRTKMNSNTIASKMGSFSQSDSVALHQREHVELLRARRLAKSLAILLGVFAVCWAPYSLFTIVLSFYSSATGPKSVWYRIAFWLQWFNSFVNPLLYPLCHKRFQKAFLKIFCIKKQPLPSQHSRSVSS
Description: as §1, §2, §3, §4, §5

Sequence of human histamine receptor type 1 (P35367 whole entry): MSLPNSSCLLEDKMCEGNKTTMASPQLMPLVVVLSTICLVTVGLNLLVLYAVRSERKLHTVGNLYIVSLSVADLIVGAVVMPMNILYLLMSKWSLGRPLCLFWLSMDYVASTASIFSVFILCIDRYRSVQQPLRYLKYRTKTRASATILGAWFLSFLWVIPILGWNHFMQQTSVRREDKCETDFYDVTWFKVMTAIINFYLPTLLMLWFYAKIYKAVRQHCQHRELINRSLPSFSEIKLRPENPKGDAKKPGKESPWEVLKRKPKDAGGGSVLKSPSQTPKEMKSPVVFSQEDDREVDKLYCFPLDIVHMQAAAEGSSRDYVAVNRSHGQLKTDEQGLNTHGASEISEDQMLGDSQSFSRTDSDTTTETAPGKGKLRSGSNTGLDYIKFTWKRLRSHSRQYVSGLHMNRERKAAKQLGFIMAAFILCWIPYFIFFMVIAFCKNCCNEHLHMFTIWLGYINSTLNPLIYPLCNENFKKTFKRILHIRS

SMILES	IC50 [1] [µM]	IC50 [2] [µM]
CN(C)CCCn1c2ccccc2c2cc(CN3CCCC(N)C3)ccc21 (centres unmarked) [Example 28, 1-((9-(3-(dimethylamino)propyl)-9H-carbazol-3-yl)methyl)piperidin-3-amine]	> 30	55.9
CCn1c2ccccc2c2cccc(CN3CCN(C)CC3)c21 [Example 33, 9-ethyl-1-((4-methylpiperazin-1-yl)methyl)-9H-carbazole]	19	9.64
CCn1c2ccccc2c2cc(CN3CCCC(c4cn[nH]c4)C3)ccc21 (centres unmarked) [Example 24, 3-((3-(1H-pyrazol-4-yl)piperidin-1-yl)methyl)-9-ethyl-9H-carbazole]	0.57	4.34
CCn1c2ccccc2c2cc(CN3CCCC(c4nnn[nH]4)C3)ccc21 (centres unmarked) [Example 14, 3-((3-(1H-tetrazol-5-yl)piperidin-1-yl)methyl)-9-ethyl-9H-carbazole]	0.69	0.33
CCn1c2ccccc2c2cc(CN3CCCC(c4nnc[nH]4)C3)ccc21 (centres unmarked) [Example 19, 3-((3-(4H-1,2,4-Triazol-3-yl)piperidin-1-yl)methyl)-9-ethyl-9H-carbazole]	0.59	0.99
CN(C)CCCn1c2ccccc2c2cc(CN3CCCC(C(N)=O)C3)ccc21 (centres unmarked) [Example 27, 1-((9-(3-(dimethylamino)propyl)-9H-carbazol-3-yl)methyl)piperidine-3-carboxamide]	> 30	> 30
CCn1c2ccccc2c2ccc(CN3CCN(C)CC3)cc21 [Example 34, 9-ethyl-2-((4-methylpiperazin-1-yl)methyl)-9H-carbazole]	35.4	8.55
CCn1c2ccccc2c2cc(CN3CCCC(c4ncc[nH]4)C3)ccc21 (centres unmarked) [Example 17, 3-((3-(1H-imidazol-2-yl)piperidin-1-yl)methyl)-9-ethyl-9H-carbazole]	0.53	2.28
CCn1c2ccccc2c2c(CN3CCN(C)CC3)cccc21 [Example 32, 9-ethyl-4-((4-methylpiperazin-1-yl)methyl)-9H-carbazole]	> 30	21.9
CCn1c2ccccc2c2cc(CN3CCCC(c4cnc[nH]4)C3)ccc21 (centres unmarked) [Example 21, 3-((3-(1H-Imidazol-5-yl)piperidin-1-yl)methyl)-9-ethyl-9H-carbazolee]	1.35	2.75
CCn1c2ccccc2c2cc(CN3CCC(C)CC3)ccc21 [Example 5, 9-Ethyl-3-((4-methylpiperidin-1-yl)methyl)-9H-carbazole]	5.94	8.09
CCOC(=O)C1CCCN(Cc2ccc3c(c2)c2ccccc2n3CC)C1 (centres unmarked) [Example 7, Ethyl 1-((9-ethyl-9H-carbazol-3-yl)methyl)piperidine-3-carboxylate]	5.57	3.83
CN(C)CCCn1c2ccccc2c2cc(CN3CCCC(c4ccn[nH]4)C3)ccc21 (centres unmarked) [Example 26, 3-(3-((3-(1H-pyrazol-5-yl)piperidin-1-yl)methyl)-9H-carbazol-9-yl)-N,N-dimethylpropan-1-amine]	21.1	19.8
CCn1c2ccccc2c2cc(CN3CCCC(CO)C3)ccc21 (centres unmarked) [Example 12, (1-((9-Ethyl-9H-carbazol-3-yl)methyl)piperidin-3-yl)methanol]	3.16	1.46
CCn1c2ccccc2c2cc(CN3CCCC(c4ccn[nH]4)C3)ccc21 (centres unmarked) [Example 1, 3-((3-(1H-pyrazol-5-yl)piperidin-1-yl)methyl)-9-ethyl-9H-carbazole]	0.54	1.07
CCn1c2ccccc2c2cc(CN3CCCC3)ccc21 [Example 8, 9-Ethyl-3-(pyrrolidin-1-ylmethyl)-9H-carbazole]	7.55	8.5
CCn1c2ccccc2c2cccc(CN3CCCC(c4ccn[nH]4)C3)c21 (centres unmarked) [Example 30, 1-((3-(1H-pyrazol-5-yl)piperidin-1-yl)methyl)-9-ethyl-9H-carbazole]	> 100	37.4

SMILES	IC50 [1] [µM]	IC50 [2] [µM]
CCn1c2ccccc2c2cc(CN3CCN(C)CC3)ccc21 [Example 25, 9-ethyl-3-((4-methylpiperazin-1-yl)methyl)-9H-carbazole]	2.58	0.66
CCn1c2ccccc2c2ccc(CN3CCCC(c4ccn[nH]4)C3)cc21 (centres unmarked) [Example 29, 2-((3-(1H-pyrazol-5-yl)piperidin-1-yl)methyl)-9-ethyl-9H-carbazole]	6.74	32.1
CCn1c2c(c3cc(CN4CCCC(c5ccn[nH]5)C4)ccc31)CCCC2 (centres unmarked) [Example 22, 6-((3-(1H-pyrazol-5-yl)piperidin-1-yl)methyl)-9-ethyl-2,3,4,9-tetrahydro-1H-carbazole]	8.72	5.9
CCn1c2ccccc2c2c(CN3CCCC(c4ccn[nH]4)C3)cccc21 (centres unmarked) [Example 31, 4-((3-(1H-pyrazol-5-yl)piperidin-1-yl)methyl)-9-ethyl-9H-carbazole]	14.8	18.4
c1ccc2c(c1)[nH]c1ccc(CN3CCCC(c4ccn[nH]4)C3)cc12 (centres unmarked) [Example 15, 3-((3-(1H-pyrazol-5-yl)piperidin-1-yl)methyl)-9H-carbazole]	37.6	52.6
CCn1c2ccccc2c2cc(CN3CCCC(C(N)=O)C3)ccc21 (centres unmarked) [Example 10, 1-((9-Ethyl-9H-carbazol-3-yl)methyl)piperidine-3-carboxamide]	0.68	0.18
CCn1c2ccccc2c2cc(CN3CCC(O)CC3)ccc21 [Example 3, 1-((9-Ethyl-9H-carbazol-3-yl)methyl)piperidin-4-ol]	3.12	3.06
CCn1c2ccccc2c2cc(CN3CCOCC3)ccc21 [Example 2, 4-((9-Ethyl-9H-carbazol-3-yl)methyl)morpholine]	11.1	2.23
CCn1c2ccccc2c2cc(CN3CCCC(C)C3)ccc21 (centres unmarked) [Example 6, 9-Ethyl-3-((3-methylpiperidin-1-yl)methyl)-9H-carbazole]	5.97	4.39
CCn1c2ccccc2c2cc(CN3CC(C)CC(C)C3)ccc21 (centres unmarked) [Example 4, 3-((3,5-Dimethylpiperidin-1-yl)methyl)-9-ethyl-9H-carbazole]	18.2	9.62
CCn1c2ccccc2c2cc(CN3CCCC(C(=O)N(C)C)C3)ccc21 (centres unmarked) [Example 20, 1-((9-ethyl-9H-carbazol-3-yl)methyl)-N,N-dimethylpiperidine-3-carboxamide]	3.38	1.1
CCn1c2ccccc2c2cc(CN3CCNCC3)ccc21 [Example 9, 9-Ethyl-3-(piperazin-1-ylmethyl)-9H-carbazole]	46.4	12.6
CCn1c2ccccc2c2cc(CN3CCCC(c4cnn[nH]4)C3)ccc21 (centres unmarked) [Example 23, 3-((3-(1H-1,2,3-triazol-5-yl)piperidin-1-yl)methyl)-9-ethyl-9H-carbazole]	0.09	0.96
CCn1c2ccccc2c2cc(CN3CCCC(C(=O)NC)C3)ccc21 (centres unmarked) [Example 16, 1-((9-ethyl-9H-carbazol-3-yl)methyl)-N-methylpiperidine-3-carboxamide]	0.95	0.34
CCn1c2ccccc2c2cc(CN3CCCC(n4ccnn4)C3)ccc21 (centres unmarked) [Example 18, 3-((3-(1H-1,2,3-triazol-1-yl)piperidin-1-yl)methyl)-9-ethyl-9H-carbazole]	1.72	2.28
CCn1c2ccccc2c2cc(CN3CCCC(C#N)C3)ccc21 (centres unmarked) [Example 13, 1-((9-Ethyl-9H-carbazol-3-yl)methyl)piperidine-3-carbonitrile]	2.56	1.03
CCn1c2ccccc2c2cc(CN3CCCC(C(=O)O)C3)ccc21 (centres unmarked) [Example 11, 1-((9-Ethyl-9H-carbazol-3-yl)methyl)piperidine-3-carboxylic acid]	9.91	6.15
